According to patent US20220177471A1, “N-1 BRANCHED ALKYL SUBSTITUTED IMIDAZO[4,5-C]QUINOLINE COMPOUNDS, COMPOSITIONS, AND METHODS” (3M INNOVATIVE PROPERTIES COMPANY, priority 2019, published 2022):

molecular target: T1, human TLR7 (Homo sapiens, UniProt Q9NYK1); assay: TLR activation, HEK-BLUE-hTLR7 SEAP reporter cells; assay type: cell-based; conditions: 16-20 hours, lowest concentration giving SEAP response at least 2x vehicle control, tested 0.01-30 micromolar
T1 construct: host or cells: HEK293 (HEK-BLUE-hTLR7)
T1 sequence (Q9NYK1 27-1049): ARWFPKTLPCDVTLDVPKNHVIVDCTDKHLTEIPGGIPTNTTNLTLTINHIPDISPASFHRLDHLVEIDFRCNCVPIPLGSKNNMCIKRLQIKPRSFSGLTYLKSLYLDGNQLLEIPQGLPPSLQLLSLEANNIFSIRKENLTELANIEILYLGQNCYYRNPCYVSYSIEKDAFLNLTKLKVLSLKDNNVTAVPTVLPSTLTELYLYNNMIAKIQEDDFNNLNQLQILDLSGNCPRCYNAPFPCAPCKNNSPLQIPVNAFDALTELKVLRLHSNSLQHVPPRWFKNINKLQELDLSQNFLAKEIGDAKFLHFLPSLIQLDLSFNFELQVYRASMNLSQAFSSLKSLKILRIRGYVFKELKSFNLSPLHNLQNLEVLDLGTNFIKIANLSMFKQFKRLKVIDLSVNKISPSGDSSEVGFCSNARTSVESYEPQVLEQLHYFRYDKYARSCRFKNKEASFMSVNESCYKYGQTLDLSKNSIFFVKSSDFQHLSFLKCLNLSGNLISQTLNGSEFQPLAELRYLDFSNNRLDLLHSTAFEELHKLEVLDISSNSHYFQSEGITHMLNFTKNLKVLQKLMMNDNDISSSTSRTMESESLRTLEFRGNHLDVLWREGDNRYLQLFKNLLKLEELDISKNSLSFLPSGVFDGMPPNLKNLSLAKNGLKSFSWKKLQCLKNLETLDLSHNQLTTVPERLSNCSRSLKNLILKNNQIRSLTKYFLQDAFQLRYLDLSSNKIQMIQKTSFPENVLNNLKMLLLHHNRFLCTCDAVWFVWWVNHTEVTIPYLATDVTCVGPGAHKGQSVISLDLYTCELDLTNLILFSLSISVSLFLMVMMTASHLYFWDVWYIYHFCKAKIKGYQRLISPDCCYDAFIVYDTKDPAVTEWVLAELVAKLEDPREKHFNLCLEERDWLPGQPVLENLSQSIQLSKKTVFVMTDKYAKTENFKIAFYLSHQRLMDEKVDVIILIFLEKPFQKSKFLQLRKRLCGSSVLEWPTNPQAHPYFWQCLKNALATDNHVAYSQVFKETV
Procedure: HEK-BLUE-hTLR7 or hTLR8 reporter cells were obtained from InvivoGen, San Diego, Calif. According to the manufacturer's description, these reporter cells were prepared by co-transfection of HEK293 cells with an inducible secreted embryonic alkaline phosphatase (SEAP) reporter gene and either the human TLR7 or TLR8 gene. The SEAP reporter gene was placed under the control of an IFN-β minimal promoter fused to five NF-κB and AP-1-binding sites. In the presence of a TLR ligand, activation of NF-κB and AP-1 occurs, resulting in a corresponding increase in SEAP levels.
In the assay, the HEK cells were grown and maintained using standard cell culture techniques in a growth medium that contained Dulbecco's Modified Eagle Medium (ThermoFisher Scientific Incorporated, Waltham, Mass.) supplemented with 1% penicillin/streptomycin and 10% heat-inactivated Gibco fetal bovine serum (ThermoFisher Scientific). Each compound was solubilized in DMSO to create a 3 mM stock solution. The stock solution was then further diluted with the growth medium to prepare serial dilutions. Each test compound was tested at a concentration of 30, 10, 3.3, 1.1, 0.37, 0.12, 0.04, and 0.01 micromolar using a 96-well format with 5×10^4 cells and 200 microliters of growth medium per well.
For each compound, hTLR7, hTLR8, and their respective null control HEK cells were screened. DMSO serially diluted into the growth medium served as the vehicle control. Cell culture supernatants containing the SEAP reporter were collected after an incubation period of 16-20 hours in a cell culture incubator (37° C. and 5% CO2), and either analyzed immediately or stored at −80° C. SEAP levels were measured using the colorimetric enzyme assay (QUANTI-BLUE (InvivoGen) according to manufacturer's instructions.
Specifically, the minimum effective concentration of each compound (micromolar) was determined as the lowest concentration of the compound that produced a SEAP expression response at least 2× greater than that observed with the vehicle control wells.

| Compound | MEC to Produce TLR Activation: TLR 7 |
| --- | --- |
| CCCC[C@@H](n1cnc2c(N)nc3ccccc3c21)C(C)(C)C [Example 8, 1-[(1R)-1-tert-butylpentyl]imidazo[4,5-c]quinolin-4-amine] | ≤0.01 µM |
| C[C@@H](C1CCCCC1)n1cnc2c(N)nc3ccccc3c21 [Example 6, 1-[(1S)-1-cyclohexylethyl]imidazo[4,5-c]quinolin-4-amine] | >30 µM |
| CCCC[C@H](C(C)C)n1cnc2c(N)nc3ccccc3c21 [Example 7, 1-[(1R)-1-isopropylpentyl]imidazo[4,5-c]quinolin-4-amine] | 0.04 µM |
| C[C@H](n1cnc2c(N)nc3ccccc3c21)C(C)(C)C [Example 4, 1-[(1S)-1,2,2-trimethylpropyl]imidazo[4,5-c]quinolin-4-amine] | >30 µM |
| CC(C)[C@H](C)n1cnc2c(N)nc3ccccc3c21 [Example 2, 1-[(1S)-1,2-dimethylpropyl]imidazo[4,5-c]quinolin-4-amine] | >30 µM |
| C[C@@H](n1cnc2c(N)nc3ccccc3c21)C(C)(C)C [Example 3, 1-[(1R)-1,2,2-trimethylpropyl]imidazo[4,5-c]quinolin-4-amine] | 1.11 µM |
| C[C@H](C1CCCCC1)n1cnc2c(N)nc3ccccc3c21 [Example 5, 1-[(1R)-1-cyclohexylethyl]imidazo[4,5-c]quinolin-4-amine] | 1.11 µM |
| C[C@H](n1cnc2c(N)nc3ccccc3c21)C(C)(C)F [Example 21, 1-[(1S)-2-fluoro-1,2-dimethyl-propyl]imidazo[4,5-c]quinolin-4-amine] | >30 µM |
| CCC(O)(CC)[C@@H](C)n1cnc2c(N)nc3ccccc3c21 [Example 19, (2R)-2-(4-aminoimidazo[4,5-c]quinolin-1-yl)-3-ethyl-pentan-3-ol] | 3.3 µM |
| CC(C)[C@@H](C)n1cnc2c(N)nc3ccccc3c21 [Example 1, 1-[(1R)-1,2-dimethylpropyl]imidazo[4,5-c]quinolin-4-amine] | 1.1 µM |
| CC(C)(O)Cn1cnc2c(N)nc3ccccc3c21 [Comparative Example 2, 1-(4-aminoimidazo[4,5-c]quinolin-1-yl)-2-methyl-propan-2-ol, reference compound] | 10 µM |
| C[C@@H](n1cnc2c(N)nc3ccccc3c21)C(C)(C)F [Example 20, 1-[(1R)-2-fluoro-1,2-dimethyl-propyl]imidazo[4,5-c]quinolin-4-amine] | 3.3 µM |
| CC(C)Cn1cnc2c(N)nc3ccccc3c21 [Comparative Example 1, 1-isobutylimidazo[4,5-c]quinolin-4-amine, reference compound] | 10 µM |

Second part, the molecule after the results:

| MEC to Produce TLR Activation: TLR 7 | Compound |
| --- | --- |
| 0.04 µM | CCC[C@@H](n1cnc2c(N)nc3ccccc3c21)C(C)(C)O [Example 13, (3R)-3-(4-aminoimidazo[4,5-c]quinolin-1-yl)-2-methyl-hexan-2-ol] |
| >30 µM | C[C@H](n1cnc2c(N)nc3ccccc3c21)C(C)(C)O [Example 10, (3S)-3-(4-aminoimidazo[4,5-c]quinolin-1-yl)-2-methyl-butan-2-ol] |
| >30 µM | CC[C@H](n1cnc2c(N)nc3ccccc3c21)C(C)(C)O [Example 12, (3S)-3-(4-aminoimidazo[4,5-c]quinolin-1-yl)-2-methyl-pentan-2-ol] |
| >30 µM | CC(C)C[C@H](n1cnc2c(N)nc3ccccc3c21)C(C)(C)O [Example 18, (3S)-3-(4-aminoimidazo[4,5-c]quinolin-1-yl)-2,5-dimethyl-hexan-2-ol] |
| 1.1 µM | CC(C)C[C@@H](n1cnc2c(N)nc3ccccc3c21)C(C)(C)O [Example 17, (3R)-3-(4-aminoimidazo[4,5-c]quinolin-1-yl)-2,5-dimethyl-hexan-2-ol] |
| >30 µM | CCCC[C@H](n1cnc2c(N)nc3ccccc3c21)C(C)(C)O [Example 16, (3S)-3-(4-aminoimidazo[4,5-c]quinolin-1-yl)-2-methyl-heptan-2-ol] |
| 3.3 µM | C[C@@H](n1cnc2c(N)nc3ccccc3c21)C(C)(C)O [Example 9, (3R)-3-(4-aminoimidazo[4,5-c]quinolin-1-yl)-2-methyl-butan-2-ol] |
| 0.01 µM | CCCC[C@@H](n1cnc2c(N)nc3ccccc3c21)C(C)(C)O [Example 15, (3R)-3-(4-aminoimidazo[4,5-c]quinolin-1-yl)-2-methyl-heptan-2-ol] |
| 1.1 µM | CC[C@@H](n1cnc2c(N)nc3ccccc3c21)C(C)(C)O [Example 11, (3R)-3-(4-aminoimidazo[4,5-c]quinolin-1-yl)-2-methyl-pentan-2-ol] |
| >30 µM | CCC[C@H](n1cnc2c(N)nc3ccccc3c21)C(C)(C)O [Example 14, (3S)-3-(4-aminoimidazo[4,5-c]quinolin-1-yl)-2-methyl-hexan-2-ol] |
